Source: publication PMC8085414, “L-Carnitine Production Through Biosensor-Guided Construction of the Neurospora crassa Biosynthesis Pathway in Escherichia coli” (Frontiers in Bioengineering and Biotechnology, 2021)

Target: T1, TMABADH.1S (Neurospora crassa, UniProt Q7RYT1)
T1 construct: gene NCU00378; 495 AA short annotation of NCU00378; codon-harmonized synthetic gene in pECXT99A, E. coli DH5alpha crude extract
T1 sequence (Q7RYT1 52-546): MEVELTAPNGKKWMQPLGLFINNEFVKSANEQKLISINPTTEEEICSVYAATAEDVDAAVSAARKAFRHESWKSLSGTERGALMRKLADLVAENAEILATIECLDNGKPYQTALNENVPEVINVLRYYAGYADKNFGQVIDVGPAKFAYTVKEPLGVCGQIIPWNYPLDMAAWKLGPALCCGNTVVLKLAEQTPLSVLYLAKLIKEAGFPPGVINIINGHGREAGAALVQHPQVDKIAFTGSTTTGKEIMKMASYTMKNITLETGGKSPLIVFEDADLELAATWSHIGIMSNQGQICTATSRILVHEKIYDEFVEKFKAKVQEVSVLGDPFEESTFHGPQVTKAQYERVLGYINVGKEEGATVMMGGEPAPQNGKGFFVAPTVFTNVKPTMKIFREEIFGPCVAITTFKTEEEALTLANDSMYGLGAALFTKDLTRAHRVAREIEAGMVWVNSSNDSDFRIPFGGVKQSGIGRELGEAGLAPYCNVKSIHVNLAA
Assay: NADH formation at […] nm, E. coli crude extract
Assay type: biochemical
Details: 2 mM NAD+, 0.4 mM TMABA iodide, glycine-NaOH pH 9.5, 30 °C

## NC(=O)c1ccc[n+]([C@@H]2O[C@H](COP(=O)(O)OP(=O)(O)OC[C@H]3O[C@@H](n4cnc5c(N)ncnc54)[C@H](O)[C@@H]3O)[C@@H](O)[C@H]2O)c1 [NAD^+]
  NADH formation at 340 nm, E. coli crude extract: co-conversion of NAD^+ to NADH in the TMABADH reaction
